Measured values: patent US20240228482A1, “COMPOUNDS, COMPOSITIONS AND METHODS OF TREATING CANCER” (HOTSPOT THERAPEUTICS, INC., priority 2021, published 2024)

Molecular target: T1, CBL-B (Homo sapiens, UniProt Q13191)
T1 construct: GST
Assay: CBL-B TR-FRET IC50 screening (E1/E2 ubiquitination, Biotin-Ubiquitin, Anti GST-Tb donor / Streptavidin-d2 acceptor)
Type: biochemical
Conditions: CBL-B 10 nM final; 11-point titration from 100 uM; binned A-F; read-out: CBL-B TR-FRET activity IC50

T1 sequence (Q13191 whole entry): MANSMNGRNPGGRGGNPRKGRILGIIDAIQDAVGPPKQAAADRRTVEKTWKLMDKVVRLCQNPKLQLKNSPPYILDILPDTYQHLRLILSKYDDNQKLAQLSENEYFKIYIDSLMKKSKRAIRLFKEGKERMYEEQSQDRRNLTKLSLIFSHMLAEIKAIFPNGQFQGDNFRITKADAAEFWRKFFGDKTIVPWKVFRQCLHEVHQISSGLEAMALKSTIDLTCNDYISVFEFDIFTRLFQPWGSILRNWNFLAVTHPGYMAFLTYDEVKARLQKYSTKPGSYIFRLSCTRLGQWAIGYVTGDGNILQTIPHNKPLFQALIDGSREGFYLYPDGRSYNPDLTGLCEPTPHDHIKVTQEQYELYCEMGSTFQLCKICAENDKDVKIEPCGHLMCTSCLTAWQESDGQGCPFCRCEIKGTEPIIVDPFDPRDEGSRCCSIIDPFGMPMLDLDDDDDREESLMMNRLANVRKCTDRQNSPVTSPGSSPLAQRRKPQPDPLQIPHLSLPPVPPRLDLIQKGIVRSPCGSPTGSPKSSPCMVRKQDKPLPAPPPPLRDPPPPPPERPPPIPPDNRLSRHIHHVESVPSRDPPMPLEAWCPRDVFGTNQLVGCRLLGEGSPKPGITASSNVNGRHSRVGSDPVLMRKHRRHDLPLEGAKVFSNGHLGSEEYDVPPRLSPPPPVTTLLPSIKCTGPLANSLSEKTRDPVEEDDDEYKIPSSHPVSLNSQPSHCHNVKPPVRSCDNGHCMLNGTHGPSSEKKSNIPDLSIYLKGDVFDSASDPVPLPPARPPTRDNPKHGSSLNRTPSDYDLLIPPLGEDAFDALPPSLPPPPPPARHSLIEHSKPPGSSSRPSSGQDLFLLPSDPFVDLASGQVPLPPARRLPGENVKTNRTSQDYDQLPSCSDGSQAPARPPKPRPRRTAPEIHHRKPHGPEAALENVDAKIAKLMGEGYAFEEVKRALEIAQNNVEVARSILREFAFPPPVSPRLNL

Row | Structure (SMILES) | IC50
1 | Cn1cnnc1[C@@H](c1cccc(-n2cc3c(C(F)(F)F)cc(CN4CC5(CSC5)C4)cn3c2=O)c1)C1CCC1 [Compound 276] | < 100 nM
2 | Cc1cc(-n2cc3c(C(F)(F)F)cc(CN4CCO[C@H](C)C4)cn3c2=O)cc(C2(Cc3nncn3C)COC2)c1 [Compound 277] | > 10000 nM
3 | [2H]C([2H])([2H])n1cnnc1CC1(c2cccc(-n3cc4c(C(F)(F)F)cc([C@H](C)N5CCC[C@H](C)C5)cn4c3=O)c2)COC1 [Compound 278_P1] | < 100 nM
4 | [2H]C([2H])([2H])n1cnnc1CC1(c2cccc(-n3cc4c(C(F)(F)F)cc([C@@H](C)N5CCC[C@H](C)C5)cn4c3=O)c2)COC1 [Compound 278_P2] | < 100 nM
5 | C[C@@H]1CN(Cc2cc(C(F)(F)F)c3cn(-c4cccc(C5(c6nncn6C)CC(F)(F)C5)c4)c(=O)n3c2)CCO1 [Compound 279] | 301 to 1000 nM
6 | Cc1c[nH]nc1[C@H](c1cccc(-n2cc3c(C(F)(F)F)cc(CN4CCC[C@H](C)C4)cn3c2=O)c1)C1COC1 [Compound 280] | > 10000 nM
7 | Cc1c[nH]nc1[C@@H](c1cccc(-n2cc3c(C(F)(F)F)cc(CN4CCC[C@H](C)C4)cn3c2=O)c1)C1COC1 [Compound 281] | > 10000 nM
8 | Cn1cnnc1[C@@H](c1cccc(-n2cc3c(C(F)(F)F)cc(CN4CC[C@H](C(F)(F)F)C4)cn3c2=O)c1)C1CCC1 [Compound 284] | 301 to 1000 nM
9 | Cn1cnnc1[C@@H](c1cccc(-n2cc3c(C(F)(F)F)cc(CN4CC5(CCC5)C4)cn3c2=O)c1)C1CCC1 [Compound 286] | < 100 nM
10 | [2H]C([2H])([2H])n1cnnc1CC1(c2cccc(-n3cc4c(C(F)(F)F)cc([C@H](C)N5CCO[C@H](C)C5)cn4c3=O)c2)COC1 [Compound 287_P1] | < 100 nM
11 | [2H]C([2H])([2H])n1cnnc1CC1(c2cccc(-n3cc4c(C(F)(F)F)cc([C@@H](C)N5CCO[C@H](C)C5)cn4c3=O)c2)COC1 [Compound 287_P2] | < 100 nM
12 | C[C@@H]1CN(Cc2cc(C(F)(F)F)c3cn(-c4cccc([C@H](c5nncn5C)C5CCC5)c4)c(=O)n3c2)CCS1 [Compound 290] | < 100 nM
13 | C[C@@H]1CN(Cc2cc(C(F)(F)F)c3cn(-c4cccc([C@H](c5nncs5)C5CCC5)c4)c(=O)n3c2)CCO1 [Compound 291] | > 10000 nM
14 | C[C@H]1CCCN(Cc2cc(C(F)(F)F)c3cn(-c4cccc(Cc5nncn5C)c4)c(=O)n3c2)C1 [Compound 294] | 1000 to 3000 nM
15 | Cn1cnnc1[C@@H](c1cccc(-n2cc3c(C(F)(F)F)cc(CN4CC5(CCCC5)C4)cn3c2=O)c1)C1CCC1 [Compound 295] | < 100 nM
16 | COC1(C)CN(Cc2cc(C(F)(F)F)c3cn(-c4cccc([C@H](c5nncn5C)C5CCC5)c4)c(=O)n3c2)C1 [Compound 296] | < 100 nM
17 | Cn1cnnc1[C@@H](c1cccc(-n2cc3c(C(F)(F)F)cc(CN4CC(F)C4)cn3c2=O)c1)C1CCC1 [Compound 297] | < 100 nM
18 | Cn1cnnc1[C@@H](c1cccc(-n2cc3c(C(F)(F)F)cc(CN4CC(C)(F)C4)cn3c2=O)c1)C1CCC1 [Compound 298] | < 100 nM
19 | Cn1cnnc1[C@@H](c1cccc(-n2cc3c(C(F)(F)F)cc(CN4CC(F)(F)C4)cn3c2=O)c1)C1CCC1 [Compound 299] | < 100 nM
20 | C[C@@H]1CN(Cc2cc(C(F)(F)F)c3cn(-c4cccc([C@@H](c5nncs5)C5CCC5)c4)c(=O)n3c2)CCO1 [Compound 300] | 1000 to 3000 nM
21 | C[C@@H]1CN(Cc2cc(C(F)(F)F)c3cn(-c4cccc([C@H](c5nncn5C)C5COC5)c4)c(=O)n3c2)CCO1 [Compound 304] | < 100 nM

Row | Structure (SMILES) | IC50
22 | Cn1cnnc1C1(c2cccc(-n3cc4c(C(F)(F)F)cc(CN5CCc6ncsc6C5)cn4c3=O)c2)CC2(CC2)C1 [Compound 307] | < 100 nM
23 | C[C@H]1CCCN(Cc2cc(C(F)(F)F)c3cn(-c4cccc(C5(c6nncn6C)CC6(CCC6)C5)c4)c(=O)n3c2)C1 [Compound 310] | < 100 nM
24 | C[C@H]1CCCN(Cc2cc(C(F)(F)F)c3cn(-c4cccc(C5(c6nncs6)CC6(CC6)C5)c4)c(=O)n3c2)C1 [Compound 311] | > 10000 nM
25 | COC1CN(Cc2cc(C(F)(F)F)c3cn(-c4cccc([C@H](c5nncn5C)C5CCC5)c4)c(=O)n3c2)C1 [Compound 312] | < 100 nM
26 | Cn1cnnc1[C@@H](c1cccc(-n2cc3c(C(F)(F)F)cc(CN4CC(C(F)(F)F)C4)cn3c2=O)c1)C1CCC1 [Compound 313] | < 100 nM
27 | C[C@@H]1CN(Cc2cc(C(F)(F)F)c3cn(-c4cccc(N(c5nncn5C)C5CCC5)c4)c(=O)n3c2)CCO1 [Compound 314] | > 10000 nM
28 | Cn1cnnc1[C@@H](c1cccc(-n2cc3c(C(F)(F)F)cc(CN4CCc5scnc5C4)cn3c2=O)c1)C1CCC1 [Compound 315] | < 100 nM
29 | Cn1cnnc1[C@@H](c1cccc(-n2cc3c(C(F)(F)F)cc(CN4CCn5cnnc5C4)cn3c2=O)c1)C1CCC1 [Compound 316] | < 100 nM
30 | Cn1cnnc1[C@@H](c1cccc(-n2cc3c(C(F)(F)F)cc(CN4CCn5ncnc5C4)cn3c2=O)c1)C1CCC1 [Compound 317] | < 100 nM
31 | CO[C@H]1C[C@@](c2cccc(-n3cc4c(C(F)(F)F)cc(CN5CCC[C@H](C)C5)cn4c3=O)c2)(c2nncn2C)C1 [Compound 318] | < 100 nM
32 | Cn1cnnc1[C@@H](c1cccc(-n2cc3c(C(F)(F)F)cc(CN4CCO[C@H](C(F)(F)F)C4)cn3c2=O)c1)C1CCC1 [Compound 321] | < 100 nM
33 | Cn1cnnc1[C@@H](c1cccc(-n2cc3c(C(F)(F)F)cc(CNCC4COC4)cn3c2=O)c1)C1CCC1 [Compound 322] | < 100 nM
34 | CN(Cc1cc(C(F)(F)F)c2cn(-c3cccc([C@H](c4nncn4C)C4CCC4)c3)c(=O)n2c1)C1COC1 [Compound 323] | < 100 nM
35 | Cn1cnnc1[C@@H](c1cccc(-n2cc3c(C(F)(F)F)cc(CNC4COC4)cn3c2=O)c1)C1CCC1 [Compound 324] | < 100 nM
36 | CN(C)C(=O)C1CN(Cc2cc(C(F)(F)F)c3cn(-c4cccc([C@H](c5nncn5C)C5CCC5)c4)c(=O)n3c2)C1 [Compound 325] | < 100 nM
37 | Cc1[nH]nnc1[C@H](c1cccc(-n2cc3c(C(F)(F)F)cc(CN4CCC[C@H](C)C4)cn3c2=O)c1)C1CCC1 [Compound 326] | < 100 nM
38 | Cc1[nH]nnc1[C@@H](c1cccc(-n2cc3c(C(F)(F)F)cc(CN4CCC[C@H](C)C4)cn3c2=O)c1)C1CCC1 [Compound 327] | < 100 nM
39 | O=c1n(-c2cccc([C@H](c3nncs3)C3CCC3)c2)cc2c(C(F)(F)F)cc(CN3CCC4(CC4)C3)cn12 [Compound 328] | 1000 to 3000 nM
40 | COC1CCN(Cc2cc(C(F)(F)F)c3cn(-c4cccc([C@H](c5nncs5)C5CCC5)c4)c(=O)n3c2)CC1 [Compound 330] | 301 to 1000 nM
41 | Cn1cnnc1[C@@H](c1cccc(-n2cc3c(C(F)(F)F)cc(-c4nncs4)cn3c2=O)c1)C1CCC1 [Compound 331] | 301 to 1000 nM
42 | C[C@H]1CCCN(Cc2cc(C(F)(F)F)c3cn(-c4cccc([C@@H](CC5CC5)c5nncn5C)c4)c(=O)n3c2)C1 [Compound 332-p2] | < 100 nM

Row | Structure (SMILES) | IC50
43 | C[C@H]1CCCN(Cc2cc(C(F)(F)F)c3cn(-c4cccc([C@H](CC5CC5)c5nncn5C)c4)c(=O)n3c2)C1 [Compound 332_P1] | > 10000 nM
44 | O=c1n(-c2cccc([C@H](c3nncs3)C3CCC3)c2)cc2c(C(F)(F)F)cc(CN3CCC(F)CC3)cn12 [Compound 333] | 100 to 300 nM
45 | C[C@H]1CCCN(Cc2cc(C(F)(F)F)c3cn(-c4cccc(N(c5nncn5C)C5COC5)c4)c(=O)n3c2)C1 [Compound 334] | < 100 nM
46 | Cn1cnnc1[C@@H](c1cccc(-n2cc3c(C(F)(F)F)cc(CN4CC(C)(C)C4)cn3c2=O)c1)C1CCC1 [Compound 337] | < 100 nM
47 | Cn1cnnc1[C@@H](c1cccc(-n2cc3c(C(F)(F)F)cc(CN4CC(Oc5ccc(Cl)cc5)C4)cn3c2=O)c1)C1CCC1 [Compound 338] | < 100 nM
48 | CC(=O)N1CCN(Cc2cc(C(F)(F)F)c3cn(-c4cccc([C@@H](c5nncn5C)C5CCC5)c4)c(=O)n3c2)CC1 [Compound 339_P1] | < 100 nM
49 | CC(=O)N1CCN(Cc2cc(C(F)(F)F)c3cn(-c4cccc([C@H](c5nncn5C)C5CCC5)c4)c(=O)n3c2)CC1 [Compound 339_P2] | 1000 to 3000 nM
50 | Cn1cnnc1[C@H](c1cccc(-n2cc3c(C(F)(F)F)cc(CN4CCN(C=O)CC4)cn3c2=O)c1)C1CCC1 [Compound 340_P1] | < 100 nM
51 | Cn1cnnc1[C@@H](c1cccc(-n2cc3c(C(F)(F)F)cc(CN4CCN(C=O)CC4)cn3c2=O)c1)C1CCC1 [Compound 340_P2] | 1000 to 3000 nM
52 | C[C@H]1CCCN(Cc2cc(C(F)(F)F)c3cn(-c4cccc(C5(c6nncn6C)CCC5)c4)c(=O)n3c2)C1 [Compound 341] | < 100 nM
53 | C[C@H]1CCCN(Cc2cc(C(F)(F)F)c3cn(-c4cccc(N(c5nncs5)C5CCC5)c4)c(=O)n3c2)C1 [Compound 344] | > 10000 nM
54 | Cn1cnnc1[C@@H](c1cccc(-n2cc3c(C(F)(F)F)cc(CN4CCc5ncsc5C4)cn3c2=O)c1)C1COC1 [Compound 345] | < 100 nM
55 | Cn1cnnc1[C@@H](c1cccc(-n2cc3c(C(F)(F)F)cc(CNC4CC(F)(F)C4)cn3c2=O)c1)C1CCC1 [Compound 346] | > 10000 nM
56 | CN(Cc1cc(C(F)(F)F)c2cn(-c3cccc([C@H](c4nncn4C)C4CCC4)c3)c(=O)n2c1)CC1COC1 [Compound 347] | < 100 nM
57 | CC(=O)N1CC2CCC(C1)N2Cc1cc(C(F)(F)F)c2cn(-c3cccc([C@H](c4nncn4C)C4CCC4)c3)c(=O)n2c1 [Compound 348] | 100 to 300 nM
58 | CC(=O)N1C2CCC1CN(Cc1cc(C(F)(F)F)c3cn(-c4cccc([C@H](c5nncn5C)C5CCC5)c4)c(=O)n3c1)C2 [Compound 349] | < 100 nM
59 | CC1CCCN(Cc2cc(C(F)(F)F)c3cn(-c4cccc([C@H](c5nncn5C)C5CCC5)c4)c(=O)n3c2)CC1 (some centres unmarked) [Compound 350] | 100 to 300 nM
60 | COC(=O)N1CCN(Cc2cc(C(F)(F)F)c3cn(-c4cccc([C@@H](c5nncn5C)C5CCC5)c4)c(=O)n3c2)CC1 [Compound 351_P1] | 1000 to 3000 nM
61 | COC(=O)N1CCN(Cc2cc(C(F)(F)F)c3cn(-c4cccc([C@H](c5nncn5C)C5CCC5)c4)c(=O)n3c2)CC1 [Compound 351_P2] | < 100 nM
62 | C[C@H]1CCCN(Cc2cc(C(F)(F)F)c3cn(-c4cccc([C@H](CC5CCC5)c5nncn5C)c4)c(=O)n3c2)C1 [Compound 352_P1] | > 10000 nM
